According to US11078193B2 (priority 2014, dated 2021):

Experiments:
Format in all cases: cell-based
[1] = tested on: HBV; assay: anti-HBV activity, HepG2.2.15 stable transfected cell line, HBV DNA from secreted virions by realtime PCR; settings: Hepatitis B virus, 144 h, HepG2.2.15 cells, 6 days of treatment
[2] = tested on: HBV; assay: anti HBV activity, HepG2.117 inducibly HBV producing cell line (Tet-off), intracellular HBV DNA by realtime PCR; settings: Hepatitis B virus, 72 h, HepG2.117 cells, 3 days of treatment
[3] = Cytotoxicity, HepG2 cells, Resazurin assay; settings: human

SMILES | EC50 [1] | EC50 [2] | CC50 at 4 days [3]
Cn1cc(S(=O)(=O)NC2(C)COC2)cc1C(=O)Nc1ccnc(C#N)c1 [Compound 1, N-(2-Cyanopyridin-4-yl)-1-methyl-4-[(3-methyloxetan-3-yl)sulfamoyl]-1H-pyrrole-2-carboxamide] | 860 nM | 650 nM | > 25000 nM
Cn1cc(S(=O)(=O)NC2(C)COC2)cc1C(=O)Nc1cncc(C(F)(F)F)c1 [Compound 2, 1-Methyl-4-[(3-methyloxetan-3-yl)sulfamoyl]-N-[5-(trifluoromethyl)pyridin-3-yl]-1H-pyrrole-2-carboxamide] | > 1000 nM | 10400 nM | > 25000 nM
Cc1cc(NC(=O)c2cc(S(=O)(=O)NC3(C)COC3)cn2C)cnc1F [Compound 3, N-(6-Fluoro-5-methylpyridin-3-yl)-1-methyl-4-[(3-methyloxetan-3-yl)sulfamoyl]-1H-pyrrole-2-carboxamide] | > 1000 nM | 750 nM | > 25000 nM
Cn1cc(S(=O)(=O)NC2(C)COC2)cc1C(=O)Nc1cc(C(F)(F)F)ccn1 [Compound 4, 1-Methyl-4-[(3-methyloxetan-3-yl)sulfamoyl]-N-[4-(trifluoromethyl)pyridin-2-yl]-1H-pyrrole-2-carboxamide] | > 1000 nM | 2340 nM | > 25000 nM
Cn1cc(S(=O)(=O)NC2(C)COC2)cc1C(=O)Nc1cccc(C(F)(F)F)n1 [Compound 5, 1-Methyl-4-[(3-methyloxetan-3-yl)sulfamoyl]-N-[6-(trifluoromethyl)pyridin-2-yl]-1H-pyrrole-2-carboxamide] | 920 nM | 3110 nM | > 25000 nM
Cn1cc(S(=O)(=O)NC(C)(C)C)c(Cl)c1C(=O)Nc1ccnc(C#N)c1 [Compound 6, 4-(tert-Butylsulfamoyl)-3-chloro-N-(2-cyanopyridin-4-yl)-1-methyl-1H-pyrrole-2-carboxamide] | 590 nM | 650 nM | > 25000 nM
C[C@@H](NS(=O)(=O)c1cn(C)c(C(=O)Nc2ccnc(C(F)(F)F)c2)c1Cl)C(F)(F)F [Compound 10, 3-Chloro-1-methyl-4-{[(1R)-2,2,2-trifluoro-1-methylethyl]sulfamoyl}-N-[2-(trifluoromethyl)pyridin-4-yl]-1H-pyrrole-2-carboxamide] | 70 nM | 160 nM | > 25000 nM
Cc1cc(NC(=O)c2c(Cl)c(S(=O)(=O)N[C@H](C)C(F)(F)F)cn2C)cnc1F [Compound 13, 3-Chloro-N-(6-fluoro-5-methylpyridin-3-yl)-1-methyl-4-{[(1R)-2,2,2-trifluoro-1-methylethyl]sulfamoyl}-1H-pyrrole-2-carboxamide] | 110 nM | 180 nM | > 25000 nM
C[C@H](NS(=O)(=O)c1cn(C)c(C(=O)Nc2ccnc(C#N)c2)c1F)C(F)(F)F [Compound 19, N-(2-Cyanopyridin-4-yl)-3-fluoro-1-methyl-4-{[(1S)-2,2,2-trifluoro-1-methylethyl]sulfamoyl}-1H-pyrrole-2-carboxamide] | 160 nM | 100 nM | > 25000 nM
C[C@@H](NS(=O)(=O)c1cn(C)c(C(=O)Nc2ccnc(C(F)(F)F)c2)c1F)C(F)(F)F [Compound 21, 3-fluoro-1-methyl-[[(1R)-2,2,2-trifluoro-1-methyl-ethyl]sulfamoyl]-N-[2-(trifluoromethyl)-4-pyridyl]pyrrole-2-carboxamide] | 40 nM | 30 nM | > 25000 nM
C[C@@H](NS(=O)(=O)c1cn(C)c(C(=O)Nc2cccc(C#N)n2)c1Cl)C(F)(F)F [Compound 22, 3-chloro-N-(6-cyano-2-pyridyl)-1-methyl-[[(1R)-2,2,2-trifluoro-1-methyl-ethyl]sulfamoyl]pyrrole-2-carboxamide] | 440 nM | 720 nM | > 25000 nM
C[C@@H](NS(=O)(=O)c1cn(C)c(C(=O)Nc2cccc(C#N)n2)c1F)C(F)(F)F [Compound 25, N-(6-cyano-2-pyridyl)-3-fluoro-1-methyl-4-[[(1R)-2,2,2-trifluoro-1-methyl-ethyl]sulfamoyl]pyrrole-2-carboxamide] | 190 nM | > 1000 nM | > 25000 nM
C[C@@H](NS(=O)(=O)c1cn(C)c(C(=O)Nc2cccc(C(F)(F)F)n2)c1F)C(F)(F)F [Compound 26, 3-fluoro-1-methyl-4-[[(1R)-2,2,2-trifluoro-1-methyl-ethyl]sulfamoyl]-N-[6-(trifluoromethyl)-2-pyridyl]pyrrole-2-carboxamide] | 110 nM | > 1000 nM | > 25000 nM
Cn1cc(S(=O)(=O)NC2(C(F)(F)F)CCC2)c(F)c1C(=O)Nc1ccnc(C(F)F)c1F [Compound 165, N-[2-(difluoromethyl)-3-fluoro-4-pyridyl]-3-fluoro-1-methyl-4-[[1-(trifluoromethyl)cyclobutyl]sulfamoyl]pyrrole-2-carboxamide] |  | 3 nM | > 25000 nM
Cn1cc(S(=O)(=O)NC2(C(F)(F)F)CCC2)c(F)c1C(=O)Nc1ccnc(Br)c1F [Compound 166, N-(2-bromo-3-fluoro-4-pyridyl)-3-fluoro-1-methyl-4-[[1-(trifluoromethyl)cyclobutyl]sulfamoyl]pyrrole-2-carboxamide] |  | 3 nM | > 25000 nM
Cn1cc(S(=O)(=O)NC2(C(F)(F)F)CCC2)c(F)c1C(=O)Nc1ccnc(C#N)c1F [Compound 167, N-(2-cyano-3-fluoro-4-pyridyl)-3-fluoro-1-methyl-4-[[1-(trifluoromethyl)cyclobutyl]sulfamoyl]pyrrole-2-carboxamide] |  | 5 nM | > 25000 nM
Cn1cc(S(=O)(=O)NC2(C(F)(F)F)CCC2)c(F)c1C(=O)Nc1cc(F)nc(F)c1 [Compound 168, N-(2,6-difluoro-4-pyridyl)-3-fluoro-1-methyl-4-[[1-(trifluoromethyl)cyclobutyl]sulfamoyl]pyrrole-2-carboxamide] |  | 6 nM | > 25000 nM
Cn1cc(S(=O)(=O)NC2(C(F)(F)F)CCC2)c(F)c1C(=O)Nc1ccnc(F)c1 [Compound 169, 3-fluoro-N-(2-fluoro-4-pyridyl)-1-methyl-4-[[1-(trifluoromethyl)cyclobutyl]sulfamoyl]pyrrole-2-carboxamide] |  | 30 nM | > 25000 nM
Cn1cc(S(=O)(=O)NC2(C(F)(F)F)CCC2)c(F)c1C(=O)Nc1ccnc(F)c1F [Compound 170, N-(2,3-difluoro-4-pyridyl)-3-fluoro-1-methyl-4-[[1-(trifluoromethyl)cyclobutyl]sulfamoyl]pyrrole-2-carboxamide] |  | 40 nM | > 25000 nM
Cc1cc(NC(=O)c2c(F)c(S(=O)(=O)NC3(C(F)(F)F)CCC3)cn2C)cc(C#N)n1 [Compound 171, N-(2-cyano-6-methyl-4-pyridyl)-3-fluoro-1-methyl-4-[[1-(trifluoromethyl)cyclobutyl]sulfamoyl]pyrrole-2-carboxamide] |  | 100 nM | > 25000 nM
Cc1cc(NC(=O)c2c(F)c(S(=O)(=O)NC3(C(F)(F)F)CCC3)cn2C)cc(C(F)F)n1 [Compound 173, N-[2-(difluoromethyl)-6-methyl-4-pyridyl]-3-fluoro-1-methyl-4-[[1-(trifluoromethyl)cyclobutyl]sulfamoyl]pyrrole-2-carboxamide] |  | 20 nM | > 25000 nM
Cn1cc(S(=O)(=O)NC2(C(F)(F)F)CCOCC2)c(Cl)c1C(=O)Nc1ccnc(Cl)c1 [Compound 180, 3-chloro-N-(2-chloro-4-pyridyl)-1-methyl-4-[[4-(trifluoromethyl)tetrahydropyran-4-yl]sulfamoyl]pyrrole-2-carboxamide] |  | 630 nM | > 25000 nM
C[C@@H](NS(=O)(=O)c1cn(C)c(C(=O)Nc2ccc(F)c(C#N)n2)c1C#N)C(F)(F)F [Compound 181, 3-cyano-N-(6-cyano-5-fluoro-2-pyridyl)-1-methyl-4-[[(1R)-2,2,2-trifluoro-1-methyl-ethyl]sulfamoyl]pyrrole-2-carboxamide] |  | 1000 nM | > 25000 nM
C[C@@H](NS(=O)(=O)c1cn(C)c(C(=O)Nc2ccnc(C(C)(F)F)c2)c1Cl)C(F)(F)F [Compound 182, 3-chloro-N-[2-(1,1-difluoroethyl)-4-pyridyl]-1-methyl-4-[[(1R)-2,2,2-trifluoro-1-methyl-ethyl]sulfamoyl]pyrrole-2-carboxamide] |  | 1300 nM | > 25000 nM
C[C@@H](NS(=O)(=O)c1cn(C)c(C(=O)Nc2cc(C#N)ccn2)c1Cl)C(F)(F)F [Compound 183, 3-chloro-N-(4-cyano-2-pyridyl)-1-methyl-4-[[(1R)-2,2,2-trifluoro-1-methyl-ethyl]sulfamoyl]pyrrole-2-carboxamide] |  | 1400 nM | > 25000 nM
C[C@@H](NS(=O)(=O)c1cn(C)c(C(=O)Nc2nc(F)c(F)cc2F)c1Cl)C(F)(F)F [Compound 184, 3-chloro-1-methyl-4-[[(1R)-2,2,2-trifluoro-1-methyl-ethyl]sulfamoyl]-N-(3,5,6-trifluoro-2-pyridyl)pyrrole-2-carboxamide] |  | 1200 nM | > 25000 nM
C[C@@H](NS(=O)(=O)c1cn(C)c(C(=O)Nc2c(Cl)c(F)nc(F)c2Cl)c1Cl)C(F)(F)F [Compound 186, 3-chloro-N-(3,5-dichloro-2,6-difluoro-4-pyridyl)-1-methyl-4-[[(1R)-2,2,2-trifluoro-1-methyl-ethyl]sulfamoyl]pyrrole-2-carboxamide] |  | 10500 nM | > 25000 nM
C[C@@H](NS(=O)(=O)c1cn(C)c(C(=O)Nc2c(F)c(F)nc(F)c2Cl)c1Cl)C(F)(F)F [Compound 187, 3-chloro-N-(3-chloro-2,5,6-trifluoro-4-pyridyl)-1-methyl-4-[[(1R)-2,2,2-trifluoro-1-methyl-ethyl]sulfamoyl]pyrrole-2-carboxamide] |  | 710 nM | > 25000 nM
